From US20210392889A1, “COMPOSITIONS COMPRISING PYRIDINE CARBOXYLATE HERBICIDES WITH PDS INHIBITOR HERBICIDES” (Corteva Agriscience LLC, priority 2018, published 2021)

Legend:
Test in all cases: Greenhouse postemergence herbicidal effect, visual injury after 20-22 d
Type in all cases: in vivo
[1] = tested on: kochia (KCHSC, Kochia scoparia); details: for visual injury: Table 1
Excerpt: (§1) Seeds of the desired test plant species were planted in a 90:10% v/v (volume/volume) mixture of PRO-MIX® BX (Premier Tech Horticulture, Quakertown, Pa., USA) and PROFILE® GREENS GRADE™ (Profile Products LLC, Buffalo Grove, Ill., USA) planting mixture, which typically has a pH of 5.2 to 6.2 and an organic matter content of at least 50 percent, in plastic pots with a surface area of 103.2 square centimeters (cm^2). In some aspects, to ensure good germination and healthy plants, a fungicide treatment and/or other chemical or physical treatment was applied. The plants were grown for 7-36 days (d) in a greenhouse with an approximate 14-hour (h) photoperiod which was maintained at about 23° C. during the day and 22° C. during the night. Nutrients and water were added on a regular basis and supplemental lighting was provided with overhead metal halide 1000-Watt lamps as necessary. The plants were employed for testing when they reached the second or third true leaf stage.
(§2) Emulsifiable concentrates of each of each pyridine carboxylate herbicide (Compound A or Compound B) were prepared at 100 grams acid equivalent per liter (g ae/L). The emulsifiable concentrates also included a safener, cloquintocet-mexyl, at 120 grams active ingredient per liter (g ai/L). An aliquot of each emulsifiable concentrate was placed in a 25 mL glass vial and diluted with an aqueous mixture of 1.25% (v/v) ACTIROB® B esterified rapeseed oil (Bayer Crop Science, Research Triangle Park, N.C., USA) or MSO® Concentrate with LECI-TECH® methylated soybean oil (Loveland Products, Loveland, Colo., USA) to obtain concentrated stock solutions at the highest application rate for each herbicide, based upon a 12 milliliter (mL) application volume at a rate of 187 liters per hectare (L/ha). The concentrated stock solutions were further diluted with an aqueous mixture of 1.25% v/v ACTIROB® B or MSO® Concentrate with LECI-TECH® to obtain stock solutions at reduced application rates for each herbicide. Spray solutions of the herbicide combinations (Compound A or Compound B plus PDS inhibitor herbicide) were prepared by adding weighed amounts or aliquots of the PDS inhibitor herbicide to the stock solutions of Compound A or Compound B to form 12-mL spray solutions in two- or three-way combinations.
(§3) The spray solutions were applied to the plant material with an overhead Mandel track sprayer equipped with 8002E nozzles calibrated to deliver 187 L/ha over an application area of 0.503 square meters (m^2) at a spray height of 18 inches ([…] centimeters (cm)) above the average plant canopy. Control plants were sprayed in the same manner with the solvent blank. All pyridine carboxylate herbicide (component a) application rates are given as “g ae/ha” and all PDS inhibitor herbicide (component b) application rates are given as “g ai/ha.”
(§4) The treated plants and control plants were placed in a greenhouse as described above and watered by sub-irrigation to prevent wash-off of the test compounds. After 20-22 d, the condition of the test plants as compared with that of the control plants was determined visually and scored on a scale of 0 to 100 percent where 0 corresponds to no injury and 100 corresponds to complete kill.

[2] = tested on: common lambsquarters (CHEAL, Chenopodium album L.); details: for visual injury: Table 1
Excerpt: as §1, §2, §3, §4

[3] = tested on: barnyardgrass (ECHCG, Echinochloa crus-galli); details: Table 4
Excerpt: as §1, §2, §3, §4

[4] = tested on: giant foxtail (SETFA, Setaria faberi); details: Table 4
Excerpt: as §1, §2, §3, §4

[5] = tested on: ivyleaf morningglory (IPOHE, Ipomoea hederacea)
Excerpt: as §1, §2, §3, §4

[6] = tested on: wild chamomile (MATCH, Matricaria chamomilla); details: for visual injury: Table 1
Excerpt: as §1, §2, §3, §4

[7] = tested on: velvetleaf (ABUTH, Abutilon theophrasti)
Excerpt: as §1, §2, §3, §4

[8] = tested on: large crabgrass (DIGSA, Digitaria sanguinalis); details: Table 4
Excerpt: as §1, §2, §3, §4

[9] = tested on: poinsettia (EPHHL, Euphorbia heterophylla)
Excerpt: as §1, §2, §3, §4

[10] = tested on: soybean (GLXMA=Glycine max); details: Table 4
Excerpt: as §1, §2, §3, §4

[11] = tested on: Canada thistle (CIRAR, Cirsium arvense); details: for visual injury: Table 1
Excerpt: as §1, §2, §3, §4

**Q.** Which visual injury ([1]; 7.5 g/ha) does the source give for `N#CCOC(=O)c1nc(-c2ccc3cc[nH]c3c2F)c(F)c(N)c1Cl` [Compound A, cyanomethyl 4-amino-3-chloro-5-fluoro-6-(7-fluoro-1H-indol-6-yl)pyridine-2-carboxylate] here?
**A.** 63%

**Q.** And the “visual injury Obs” value ([1]; 7.5 g/ha, Table 2)?
**A.** 50%

**Q.** And the “visual injury Obs” value ([1]; 7.5 g/ha, Table 5)?
**A.** 63%

**Q.** And the “visual injury Obs” value ([1]; 7.5 g/ha, Table 6)?
**A.** 63%

**Q.** What about the “visual injury Obs” value ([1]; 7.5 g/ha, Table 7) of the same molecule?
**A.** 65%

**Q.** What about the “visual injury Obs” value ([1]; 7.5 g/ha, Table 8) of the same molecule?
**A.** 70%

**Q.** And the visual injury ([1]; 10 g/ha)?
**A.** 63%

**Q.** And the “visual injury Obs” value ([1]; 10 g/ha, Table 2)?
**A.** 58%

**Q.** And the “visual injury Obs” value ([1]; 10 g/ha, Table 5)?
**A.** 65%

**Q.** And the “visual injury Obs” value ([1]; 10 g/ha, Table 6)?
**A.** 65%

**Q.** What about the “visual injury Obs” value ([1]; 10 g/ha, Table 7) of the same molecule?
**A.** 70%

**Q.** And the “visual injury Obs” value ([1]; 10 g/ha, Table 8)?
**A.** 70%

**Q.** What about the “visual injury Obs” value ([1]; 15 g/ha, Table 8) of the same molecule?
**A.** 70%

**Q.** And the visual injury ([2]; 7.5 g/ha)?
**A.** 88%

**Q.** And the “visual injury Obs” value ([2]; 7.5 g/ha, Table 2)?
**A.** 70%

**Q.** What about the “visual injury Obs” value ([2]; 7.5 g/ha, Table 3) of the same molecule?
**A.** 60%

**Q.** And the “visual injury Obs” value ([2]; 7.5 g/ha, Table 4)?
**A.** 97%

**Q.** And the “visual injury Obs” value ([2]; 7.5 g/ha, Table 7)?
**A.** 70%

**Q.** And the “visual injury Obs” value ([2]; 7.5 g/ha, Table 8)?
**A.** 70%

**Q.** And the visual injury ([2]; 10 g/ha)?
**A.** 93%

**Q.** What about the “visual injury Obs” value ([2]; 10 g/ha, Table 2) of the same molecule?
**A.** 83%

**Q.** What about the “visual injury Obs” value ([2]; 10 g/ha, Table 3) of the same molecule?
**A.** 90%

**Q.** And the “visual injury Obs” value ([2]; 10 g/ha, Table 4)?
**A.** 93%

**Q.** What about the “visual injury Obs” value ([2]; 10 g/ha, Table 7) of the same molecule?
**A.** 78%

**Q.** And the “visual injury Obs” value ([2]; 10 g/ha, Table 8)?
**A.** 78%

**Q.** And the “visual injury Obs” value ([2]; 15 g/ha, Table 8)?
**A.** 83%

**Q.** What about the “visual injury Obs” value ([3]; 7.5 g/ha) of the same molecule?
**A.** 73%

**Q.** What about the “visual injury Obs” value ([3]; 10 g/ha) of the same molecule?
**A.** 78%

**Q.** And the “visual injury Obs” value ([4]; 7.5 g/ha)?
**A.** 70%

**Q.** And the “visual injury Obs” value ([4]; 10 g/ha)?
**A.** 70%

**Q.** What about the “visual injury Obs” value ([5]; 7.5 g/ha, Table 4) of the same molecule?
**A.** 3%

**Q.** And the “visual injury Obs” value ([5]; 7.5 g/ha, Table 5)?
**A.** 5%

**Q.** What about the “visual injury Obs” value ([5]; 7.5 g/ha, Table 6) of the same molecule?
**A.** 5%

**Q.** What about the “visual injury Obs” value ([5]; 10 g/ha, Table 4) of the same molecule?
**A.** 8%

**Q.** What about the “visual injury Obs” value ([5]; 10 g/ha, Table 5) of the same molecule?
**A.** 0%

**Q.** And the “visual injury Obs” value ([5]; 10 g/ha, Table 6)?
**A.** 0%

**Q.** And the visual injury ([6]; 7.5 g/ha)?
**A.** 20%

**Q.** What about the “visual injury Obs” value ([6]; 7.5 g/ha, Table 2) of the same molecule?
**A.** 13%

**Q.** And the “visual injury Obs” value ([6]; 7.5 g/ha, Table 3)?
**A.** 0%

**Q.** What about the “visual injury Obs” value ([6]; 7.5 g/ha, Table 7) of the same molecule?
**A.** 18%

**Q.** What about the “visual injury Obs” value ([6]; 7.5 g/ha, Table 8) of the same molecule?
**A.** 8%

**Q.** What about the visual injury ([6]; 10 g/ha) of the same molecule?
**A.** 30%

**Q.** What about the “visual injury Obs” value ([6]; 10 g/ha, Table 2) of the same molecule?
**A.** 15%

**Q.** What about the “visual injury Obs” value ([6]; 10 g/ha, Table 3) of the same molecule?
**A.** 33%

**Q.** What about the “visual injury Obs” value ([6]; 10 g/ha, Table 7) of the same molecule?
**A.** 30%

**Q.** What about the “visual injury Obs” value ([6]; 10 g/ha, Table 8) of the same molecule?
**A.** 15%

**Q.** What about the “visual injury Obs” value ([6]; 15 g/ha, Table 8) of the same molecule?
**A.** 10%

**Q.** What about the “visual injury Obs” value ([7]; 7.5 g/ha, Table 4) of the same molecule?
**A.** 68%

**Q.** What about the “visual injury Obs” value ([7]; 7.5 g/ha, Table 5) of the same molecule?
**A.** 40%

**Q.** What about the “visual injury Obs” value ([7]; 7.5 g/ha, Table 6) of the same molecule?
**A.** 40%

**Q.** And the “visual injury Obs” value ([7]; 10 g/ha, Table 4)?
**A.** 78%

**Q.** And the “visual injury Obs” value ([7]; 10 g/ha, Table 5)?
**A.** 48%

**Q.** And the “visual injury Obs” value ([7]; 10 g/ha, Table 6)?
**A.** 48%

**Q.** And the “visual injury Obs” value ([8]; 7.5 g/ha)?
**A.** 45%

**Q.** And the “visual injury Obs” value ([8]; 10 g/ha)?
**A.** 25%

**Q.** And the “visual injury Obs” value ([9]; 7.5 g/ha, Table 5)?
**A.** 91%

**Q.** And the “visual injury Obs” value ([9]; 7.5 g/ha, Table 6)?
**A.** 91%

**Q.** And the “visual injury Obs” value ([9]; 10 g/ha, Table 5)?
**A.** 83%

**Q.** What about the “visual injury Obs” value ([9]; 10 g/ha, Table 6) of the same molecule?
**A.** 83%

**Q.** And the “visual injury Obs” value ([10]; 7.5 g/ha)?
**A.** 93%

**Q.** What about the “visual injury Obs” value ([10]; 10 g/ha) of the same molecule?
**A.** 95%

**Q.** And the visual injury ([11]; 7.5 g/ha)?
**A.** 30%

**Q.** What about the “visual injury Obs” value ([11]; 7.5 g/ha, Table 3) of the same molecule?
**A.** 10%

**Q.** And the “visual injury Obs” value ([11]; 7.5 g/ha, Table 4)?
**A.** 23%

**Q.** And the “visual injury Obs” value ([11]; 7.5 g/ha, Table 5)?
**A.** 25%

**Q.** And the “visual injury Obs” value ([11]; 7.5 g/ha, Table 6)?
**A.** 25%

**Q.** And the “visual injury Obs” value ([11]; 7.5 g/ha, Table 7)?
**A.** 18%

**Q.** And the visual injury ([11]; 10 g/ha)?
**A.** 40%

**Q.** What about the “visual injury Obs” value ([11]; 10 g/ha, Table 3) of the same molecule?
**A.** 23%

**Q.** What about the “visual injury Obs” value ([11]; 10 g/ha, Table 4) of the same molecule?
**A.** 20%

**Q.** What about the “visual injury Obs” value ([11]; 10 g/ha, Table 5) of the same molecule?
**A.** 20%

**Q.** And the “visual injury Obs” value ([11]; 10 g/ha, Table 6)?
**A.** 20%

**Q.** And the “visual injury Obs” value ([11]; 10 g/ha, Table 7)?
**A.** 30%
